# Reference: patent publication US6462069B2, “Compounds, pharmaceutical compositions, and methods for inhibiting protein kinases” (Agouron Pharmaceuticals, Inc., priority 2000, dated 2002)
# Legend:
# CDK4/cyclin D3 complex = molecular target: T1, CDK4/cyclin D3 complex (Homo sapiens, UniProt P11802); assay: Inhibition of CDK4/Cyclin D retinoblastoma kinase activity; type: biochemical; settings: for Ki: apparent Ki
# T1 construct: made in house; host or cells: insect cells co-infected with baculovirus expression vectors
# Procedure: (§1) Cyclin-dependent kinase activity was measured by quantifying the enzyme-catalyzed, time-dependent incorporation of radioactive phosphate from [^32P]ATP or [^33P]ATP into a protein substrate. Unless noted otherwise, assays were performed in 96-well plates in a total volume of 50 μL, in the presence of 10 mM HEPES (N-[2-hydroxyethyl]piperazine-N′-[2-ethanesulfonic acid]) (pH 7.4). 10 mM MgCI2, 25 μM adenosine triphosphate (ATP), 1 mg/mL ovalbumin, 5 μg/mL leupeptin, 1 mM dithiothreitol, 10 mM beta-glycerophosphate, 0.1 mM sodium vanadate, 1 mM sodium fluoride, 2.5 mM ethylene glycol-bis(β-aminoethyl ethKer)-N,N,N′N′-tetraacetic acid (EGTA), 2% (v/v) dimethylsulfoxide, and 0.03-0.4 μCi [^32/33P]ATP per reaction. Reactions were initiated with enzyme, incubated at 30° C. and terminated after 20 minutes by the addition ofethylenediaminetetraacetic acid (EDTA) to 250 mM. The phosphorylated substrate was then captured on a nitrocellulose or phosphocellulose membrane using a 96-well filtration manifold, and unincorporated radioactivity was removed by repeated washing with 0.85% phosphoric acid. Radioactivity was quantified by exposing the dried membranes to a phosphorimager.
# (§2) Apparent Ki values were measured by assaying enzyme activity in the presence of different inhibitor compound concentrations and subtracting the background radioactivity measured in the absence of enzyme. Inhibition data were fit to an equation for competitive inhibition using Kaleidagraph (Synergy Software), or were fit to an equation for competitive tight-binding inhibition using the software KineTic (BioKin, Ltd.).
# A complex of human CDK4 and cyclin D3, or a complex of human CDK4 and genetically truncated (1-264) cyclin D3, was purified using traditional biochemical chromatographic techniques from insect cells that had been co-infected with the corresponding baculovirus expression vectors ((see e.g., Meijer and Kim, “Chemical Inhibitors of Cyclin-Dependent Kinases,” Methods in Enzymol,. vol. 283, pp. 113-128 (1997)). The enzyme complex (5 or 50 nM) was assayed with 0.3-0.5 μg of purified recombinant retinoblastoma protein fragment (Rb) as a substrate. The engineered Rb fragment (residues 386-928 of the native retinoblastoma protein; 62.3 kDa) contains the majority of the phosphorylation sites found in the native 106-kDa protein, as well as a tag of six histidine residues for ease of purification. Phosphorylated Rb substrate was captured by microfiltration on a nitrocellulose membrane and quantified using a phosphorimager as described above. For measurement of tight-binding inhibitors, the enzyme complex concentration was lowered to 5 nM, and the assay duration was extended to 60 minutes, during which the time-dependence of product formation was linear.
# CDK2/cyclin A complex = molecular target: T2, CDK2/cyclin A complex (Homo sapiens, UniProt P24941); assay: Inhibition of CDK2/Cyclin A retinoblastoma kinase activity; type: biochemical; settings: for Ki: apparent Ki
# T2 construct: made in house; host or cells: CDK2: insect cells (baculovirus); cyclin A: E. coli
# Procedure: as §1, §2
# CDK2 was purified using published methodology (Rosenblatt et al., “Purification and Crystallization of Human Cyclin-dependent Kinase 2,” J. Mol. Biol., vol. 230, pp. 1317-1319 (1993)) from insect cells that had been infected with a baculovirus expression vector. […] Ki values were measured as described above.
# HCT 116 cell line = assay: Inhibition of cell growth, MTT tetrazolium salt assay; type: cell-based; settings: Homo sapiens, HCT116 cells; for IC50: 50% inhibition of growth, read-out: HCT116 IC 50
# Procedure: Inhibition of cell growth was measured using the tetrazolium salt assay, which is based on the ability of viable cells to reduce 3-(4,5-dimethylthiazol-2-yl)-2,5-[2H]-diphenyltetrazolium bromide (MTT) to formazan (Mossman, Journal of Immunological Methods, vol.65, pp. 55-58(1983)). The water-insoluble purple formazan product was then detected spectrophotometrically. The HCT 116 cell line was grown in 96-well plates. Cells were plated in the appropriate medium at a volume of 135 μl/well in McCoy's 5A Medium. Plates were incubated for four hours before addition of inhibitor compounds. Different concentrations of inhibitor compounds were added in 0.5% (v/v) dimethylsulfoxide (15 μL/well), and cells were incubated at 37° C. (5% CO2) for four to six days (depending on cell type). At the end of the incubation, MTT was added to a final concentration of 0.2 mg/mL, and cells were incubated for 4 hours more at 37° C. After centrifugation of the plates and removal of medium, the absorbance of the formazan (solubilized in dimethylsulfoxide) was measured at 540 nm. The concentration of inhibitor compound causing 50% inhibition of growth was determined from the linear portion of a semi-log plot of inhibitor concentration versus percentage inhibition. All results were compared to control cells treated only with 0.5% (v/v) dimethylsulfoxide.
# [1] = molecular target: T3, full-length human CHK1 (FL-CHK1) (Homo sapiens, UniProt O14757); assay: CHK1 assay (coupled spectrophotometric); type: biochemical
# T3 construct: C-terminally His-tagged full-length human CHK1 (FL-CHK1); made in house; host or cells: baculovirus/insect cell system
# T3 sequence (O14757 1-476): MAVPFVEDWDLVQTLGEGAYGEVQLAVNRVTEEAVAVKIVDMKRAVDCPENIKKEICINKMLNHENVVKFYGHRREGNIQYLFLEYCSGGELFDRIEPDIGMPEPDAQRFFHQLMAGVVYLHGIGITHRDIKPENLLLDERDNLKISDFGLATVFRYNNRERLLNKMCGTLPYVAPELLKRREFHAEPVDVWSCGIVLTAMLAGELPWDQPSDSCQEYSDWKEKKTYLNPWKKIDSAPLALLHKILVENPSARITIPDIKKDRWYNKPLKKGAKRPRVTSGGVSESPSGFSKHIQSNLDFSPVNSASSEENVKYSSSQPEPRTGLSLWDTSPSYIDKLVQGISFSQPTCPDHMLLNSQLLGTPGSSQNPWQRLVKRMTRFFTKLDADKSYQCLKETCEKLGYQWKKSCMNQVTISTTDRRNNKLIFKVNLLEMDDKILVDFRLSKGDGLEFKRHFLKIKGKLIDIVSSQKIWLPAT
# Source text: C-terminally His-tagged full-length human CHK1 (FL-CHK1) was expressed using the baculovirus/insect cell system. It contains 6 histidine residues (6×His-tag) at the C-terminus of the 476 amino acid human CHK1. The protein was purified by conventional chromatographic techniques.
# The production of ADP from ATP that accompanies phosphoryl transfer to the synthetic substrate peptide Syntide-2 ([…]) was coupled to oxidation of NADH using phosphoenolpyruvate (PEP) through the actions of pyruvate kinase (PK) and lactic dehydrogenase (LDH). The oxidation of NADH was monitored by following the decrease of absorbance at 340 nm (∈340=6.22 cm^−1 mM^−1) using a HP8452 spectrophotometer. Typical reaction solutions contained: […] PEP; 0.15 mM NADH; 28 units of LDH/ml; 16 units of PK/ml; 3 mM DTT; 0.125 mM Syntide-2: 0.15 mM ATP; 25 mM MgCI2 in 50 mM TRIS, pH 7.5; and 400 mM NaCl. Assays were initiated with 10 nM of FL-CHK1. Ki values were determined by measuring initial enzyme activity in the presence of varying concentrations of test compounds. The data were analyzed using Enzyme Kinetic and Kaleidagraph software.
# T1 sequence (P11802 whole entry): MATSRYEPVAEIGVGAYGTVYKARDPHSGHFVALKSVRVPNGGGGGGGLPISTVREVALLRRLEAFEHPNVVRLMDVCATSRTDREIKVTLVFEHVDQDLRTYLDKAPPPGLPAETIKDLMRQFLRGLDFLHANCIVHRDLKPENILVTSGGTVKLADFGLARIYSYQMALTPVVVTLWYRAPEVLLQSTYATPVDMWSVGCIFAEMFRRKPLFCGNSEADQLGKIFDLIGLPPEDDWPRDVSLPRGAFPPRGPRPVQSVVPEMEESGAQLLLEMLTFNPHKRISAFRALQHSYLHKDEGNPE
# T1 sequence (P30281 whole entry partner): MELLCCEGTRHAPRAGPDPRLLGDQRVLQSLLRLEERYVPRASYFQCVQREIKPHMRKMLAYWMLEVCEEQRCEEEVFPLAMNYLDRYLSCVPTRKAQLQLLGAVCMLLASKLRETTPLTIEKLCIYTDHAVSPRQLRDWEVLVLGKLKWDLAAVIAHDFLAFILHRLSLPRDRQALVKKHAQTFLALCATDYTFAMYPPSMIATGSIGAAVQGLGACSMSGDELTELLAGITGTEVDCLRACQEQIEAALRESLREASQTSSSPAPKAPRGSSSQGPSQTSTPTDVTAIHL
Ki (CDK4/cyclin D3 complex) [µM],Ki (CDK2/cyclin A complex) [µM],other results,SMILES
7.4,25,–,"c1ccc(Nc2n[nH]c3c2-c2ccccc2C3)cc1 [Compound D, (1,8-Dihydro-indeno[2,1-c]pyrazol-3-yl)-phenyl-amine]"
2.3,0.08,–,"NS(=O)(=O)c1ccc(Nc2cc(-c3csc4ccc(Br)cc34)[nH]n2)cc1 [Compound U, {5-[3-(5-Bromo)-benzo[b]Thiophenyl]-1-H-pyrazol-3-yl}-phenylamine-4-Sulfonamide]"
2.1,3.2,–,"NS(=O)(=O)c1ccc(Nc2cc(-c3csc4c(-c5ccc(O)cc5)cccc34)[nH]n2)cc1 [Compound T, 4-{5-[7-(4-Hydroxy-phenyl)-benzo[b]thiophen-3-yl]-1H-pyrazol-3-ylamino]-benzenesulfonamide]"
12,0.27,–,"COc1ccc2c(-c3cc(Nc4ccc(S(N)(=O)=O)cc4)n[nH]3)csc2c1 [Compound V, 4-[5-(6-Methoxy-benzo[b]Thiophen-3-yl)-1H-pyrazol-3-ylamino]-Benzenesulfonamide]"
–,–,"inhibition at 10 µM (CDK4/cyclin D3 complex; at 10 μM, read-out: Percent Inhibition CDK4/D): 25%; inhibition at 10 µM (CDK2/cyclin A complex; at 10 μM, read-out: Percent Inhibition CDK2/A): 37%","C(=C\c1cscc1-c1cc(Nc2ccccc2)n[nH]1)/c1ccccc1 [Compound F, Phenyl-[5-(4-trans-styryl-thiophen-3-yl]-1H-pyrazol-3-yl]-amine]"
9.7,22,–,"Brc1cscc1-c1cc(Nc2ccccc2)n[nH]1 [Compound E, [5-(4-Bromo-thiophen-3-yl)-1H-pyrazol-3-yl]1-phenyl-amine]"
3,3,–,"c1ccc(Nc2cc(-c3cscc3C3CCCCC3)[nH]n2)cc1 [Compound H, [5-(4-Cyclohexyl-thiophen-3-yl)-1H-pyrazol-3-yl]-phenyl-amine]"
–,–,"inhibition at 5 µM (CDK4/cyclin D3 complex; at 5 μM, read-out: Percent Inhibition CDK4/D): 13%; inhibition at 5 µM (CDK2/cyclin A complex; at 5 μM, read-out: Percent Inhibition CDK2/A): 21%","COc1cccc(-c2cccc3c(-c4cc(Nc5ccc(S(N)(=O)=O)cc5)n[nH]4)csc23)c1 [Compound Q, 4-{5-[7-(3-Methoxy-phenyl)-benzo[b]thiophen-3-yl]-1H-pyrazol-3-ylamino]-benzenesulfonamide]"
4.1,21,–,COc1cccc(Nc2cc(-c3csc4ccccc34)[nH]n2)c1 [Compound M]
4.7,–,–,"c1ccc(Nc2cc(-c3cscc3Sc3ccccc3)[nH]n2)cc1 [Compound I, Phenyl-[5-(4-phenylsulfanyl-thiophene-3-yl)-1H-pyrazol-3-yl]-amine]"
4.9,2.4,–,"Oc1cccc(Nc2cc(-c3csc4ccccc34)[nH]n2)c1 [Compound N, 3-(Benzo[b]thiophen-3-yl-1H-pyrazol-3-ylamino)-phenol]"
0.9,0.016,IC50 (HCT 116 cell line): 20 µM,"NS(=O)(=O)c1ccc(Nc2cc(-c3csc4cc(O)ccc34)[nH]n2)cc1 [Compound W, 4-[5-(6-Hydroxy-benzo[b]Thiophen-3-yl)-1H-pyrazol-3-ylamino]-Benzenesulfonamide]"
5.3,2,–,"Oc1ccc(Nc2cc(-c3csc4ccccc34)[nH]n2)cc1 [Compound L, 4-(Benzo[b]thiophen-3-yl-1H-pyrazol-3-ylamino)-phenol]"
1.6,0.062,IC50 (HCT 116 cell line): 9.5 µM; IC90 (HCT 116 cell line; read-out: HCT116 IC 90): 24 µM,NS(=O)(=O)c1ccc(Nc2cc(-c3csc4ccccc34)[nH]n2)cc1 [Compound O]
59,61,Ki [1]: 1.5 µM,c1ccc(Nc2cc(-c3cccnc3)[nH]n2)cc1 [Compound C]
4.7,6.3,–,"COc1ccc(Nc2cc(-c3csc4ccccc34)[nH]n2)cc1 [Compound K, (5-Benzo[b]thiophen-3-yl-1H-pyrazol-3-yl)-4-(methoxy-phenyl)-amine]"
10,10,–,"C1=C(c2cscc2-c2cc(Nc3ccccc3)n[nH]2)CCCC1 [Compound G, [5-(4-Cyclohex-1-enyl-thiophen-3-yl)-1H-pyrazol-3-yl]-phenyl-amine]"
12,15,Ki [1]: 18 µM,"c1ccc(Nc2cc(-c3c[nH]c4ccccc34)[nH]n2)cc1 [Compound J, [5-(1H-Indol-3-yl)-1H-pyrazol-3-yl]-phenyl-amine]"
12,0.39,Ki [1]: 1.8 µM,"NS(=O)(=O)c1ccc(Nc2cc(-c3c[nH]c4ccccc34)[nH]n2)cc1 [Compound X, 4-[5-(1H-Indol-3-yl)-1H-pyrazol-3-ylamino]-Benzenesulfonamide]"
3.3,2.7,"inhibition at 10 µM ([1]; at 10 μM, read-out: Percent Inhibition CHK1): 8%","NS(=O)(=O)c1ccc(Nc2cc(-c3csc4c(-c5cccc(O)c5)cccc34)[nH]n2)cc1 [Compound R, 4-{5-[7-(3-Hydroxy-phenyl)-benzo[b]thiophen-3-yl]-1H pyrazol-3-ylamino]-benzenesulfonamide]"
2.1,0.11,–,"NS(=O)(=O)c1ccc(Nc2cc(-c3csc4c(Br)cccc34)[nH]n2)cc1 [Compound P, 4-[5-(7-Bromo-benzo[b]thiophen-3-yl)-1H-pyrazol-3-ylamino]-benzenesulfonamide]"
